The values below come from US6162811A, “Ellipticine compounds” (Adir et Compagnie, priority 1996, dated 2000).

The test system of data set [1] is murine lung carcinoma, Lewis Lung Carcinoma (LLC). The experiment in a line: In vitro cytotoxicity, Microculture Tetrazolium Assay, LLC. It counts as cell-based. Particulars: Mus musculus, 96 h. The protocol: (§1) A/In Vitro Activity: Cytotoxicity
(§2) Four cell lines were used:
1 murine lung carcinoma, Lewis Lung Carcinoma (LLC),
(§3) The cells are distributed onto microplates and exposed to the cytotoxic compounds. The cells are then incubated for 2 days (P388) or 4 days (LLC, KB-A1, KB-3-1).

In data set [2] the test system is human epidermoid carcinoma, KB-3-1. The experiment in a line: In vitro cytotoxicity, Microculture Tetrazolium Assay, KB-3-1. The data set is classed as cell-based. The procedure:
as §1, §2, §3

In a further data set the test system is murine leukaemia P388. Briefly: In vitro cytotoxicity, Microculture Tetrazolium Assay, P388. It counts as cell-based. The conditions noted are these: Mus musculus. The procedure:
as §1, §2, §3

For data set [3], the system named is KB-A1 (multi-drug resistant line induced by adriamycin). The experiment in a line: In vitro cytotoxicity, Microculture Tetrazolium Assay, KB-A1 (adriamycin-resistant). The conditions noted are these: Homo sapiens. The data set is classed as cell-based. The procedure:
as §1, §2
the corresponding resistant line, KB-A1, the multi-drug resistance of which was induced by adriamycin (ADR).
as §3

For another data set, the system named is leukaemia P388. The experiment in a line: Anti-tumour activity on leukaemia P388 (i.p.) in female BDF1 mice. The data set is classed as in vivo, murine (female BDF1 mice). The procedure:
1/Anti-tumour Activity of the Compounds on Leukaemia P388
The line P388 (murine leukaemia) was supplied by the National Cancer Institute (Frederick, USA). The tumour cells (10^6 cells) were injected on day 0 into the peritoneal cavity of female BDF1 mice (Iffa-Credo, France) weighing from 18 to 20 g (groups of 6 or 7 animals).
The products were administered intravenously, at the doses indicated, on day 1 or on days 1, 5 and 9.
The anti-tumour activity is expressed in % T/C: [formula]
The number of animals surviving 60 days (long-term survival) is indicated.
By way of example, Table 2 gives the results obtained with the compound of Example 32 which is especially representative of the invention.

Data set [4] has as its system human lung carcinoma NCI-H460. Briefly: Anti-tumour activity in an orthotopic model of human lung carcinoma NCI-H460 implanted intrapleurally. The conditions noted are these: for toxicity of the dose: dihydrochloride. The data set is classed as in vivo, human (tumour line, in female Nude Balb/C mice). The protocol: 2/Anti-tumour Activity of the Compounds in an Orthotopic Model of Human Lung Carcinoma NCI-H460 Implanted Intrapleurally
The line NCI-H460, which originates from a human lung carcinoma of "not small cell" type, was supplied by the American Type Culture Collection (Frederick, USA). The cells are cultured in vitro in complete RPMI 1640 medium in Falcon flasks. On the day of the implantation, the cells are separated using trypsin, centrifuged and suspended in complete culture medium. The cells are then implanted in the pleural cavity of female Nude Balb/C mice (10^6 cells per mouse). The products are administered i.v. to groups of 6 animals on days 7 and 14 at the doses indicated. The anti-tumour activity is expressed in % T/C as defined above.
Table 3 lists the results obtained with the compound of Example 3 of the present Application (especially representative of the invention) and with the closest compound of the prior art as reference product.

Setting [5] is: LLC, 4 days incubation, read-out: IC50.
The mark [6] stands for this setting: 96 h, KB-3-1, 4 days incubation, read-out: IC50.
The mark [7] stands for this setting: 48 h, P388, 2 days incubation, read-out: IC50.
[8] abbreviates: 96 h, KB-A1, 4 days incubation, read-out: IC50.
Where [9] appears, read: i.v. on days 7 and 14, 56.5 mg/kg.
Where [10] appears, read: i.v. on days 7 and 14, 80 mg/kg.
Setting [11] is: i.v. on days 7 and 14, 113 mg/kg.

The structures appear in SMILES notation. Counter-ions that a name gives are not always drawn. Like-named read-outs stand apart in the source and are kept apart here.

One may read the IC50 as the point on the concentration scale where inhibition reaches its midpoint. Take `Cc1c2ccnc(C(=O)NCCN(C)C)c2cc2c3cc(OC(=O)CCCCC(=O)O)ccc3n(C)c12` [Example 32, 1-[(2-Dimethylaminoethyl)aminocarbonyl]-5,6-dimethyl-9-(5-carboxypentanoyloxy)-6H-pyrido[4,3-b]carbazole]: the IC50 turned out to be 3.5 nM in data set [1] (setting [5]), 40.6 nM in data set [2] (setting [6]), 5.1 nM in the data set on murine leukaemia P388 (setting [7]) and 758 nM in data set [3] (setting [8]). The tolerability result with leukaemia P388 (even at a very high dose, i.v.) is recorded as “well tolerated”. The “weight loss and premature death” value in the data set on leukaemia P388 (even at a very high dose, i.v.) is “neither significant weight loss nor premature death”. In the data set on leukaemia P388 (i.v.), the general toxicity result was “very low general toxicity”. Moreover, in the data set on leukaemia P388 (i.v.), the therapeutic index entry is reported as “excellent therapeutic index”. Further, the T/C % is on record as 125% in the data set on leukaemia P388 (i.v. on D1, 20 mg/kg); 154% in the data set on leukaemia P388 (i.v. on D1, 40 mg/kg); 186% in the data set with leukaemia P388 (i.v. on D1, 80 mg/kg); 233% with leukaemia P388 (i.v. on D1, 160 mg/kg); above 600% with leukaemia P388 (i.v. on D1, 240 mg/kg); above 600% in the data set on leukaemia P388 (i.v. on D1, 320 mg/kg). For the same compound, the T/C % in the data set with leukaemia P388 (i.v. on D1, 5 and 9, 10 mg/kg) was 137%; in the data set with leukaemia P388 (i.v. on D1, 5 and 9, 20 mg/kg), 171%; in the data set on leukaemia P388 (i.v. on D1, 5 and 9, 40 mg/kg) it was 236%; with leukaemia P388 (i.v. on D1, 5 and 9, 80 mg/kg), above 600%; in the data set with leukaemia P388 (i.v. on D1, 5 and 9, 160 mg/kg), above 600%. The “number of animals surviving 60 days (cured)” value is listed as 4/7 with leukaemia P388 (i.v. on D1, 240 mg/kg); 6/7 in the data set with leukaemia P388 (i.v. on D1, 320 mg/kg); 6/7 with leukaemia P388 (i.v. on D1, 5 and 9, 80 mg/kg); 6/7 in the data set on leukaemia P388 (i.v. on D1, 5 and 9, 160 mg/kg).

As to `CC(=O)Oc1ccc2c(c1)c1cc3c(C(=O)NCCN(C)C)nccc3c(C)c1n2C` [Example 2, 1-[(2-Dimethylaminoethyl)aminocarbonyl]-5,6-dimethyl-9-acetoxy-6H-pyrido-[4,3-b]carbazole], the IC50 was determined as 13.5 nM in data set [1] (setting [5]), 36.1 nM in data set [2] (setting [6]), 5.8 nM in the data set on murine leukaemia P388 (setting [7]) and 758 nM in data set [3] (setting [8]).

Consider `Cc1c2ccnc(C(=O)NCCN(C)C)c2cc2c3cc(O)ccc3n(C)c12` [Reference product, 1[(2dimethylaminoethyl)aminocarbonyl5,6-dimethyl-9-hydroxy-6H-pyrido-[4,3]carbazoledihydrochloride, reference compound], for which the “mouse dead during the treatments” value in data set [4] (113 mg/kg i.v., days 7 and 14) stood at 1 mouse. Further, the “toxicity of the dose” value in data set [4] (113 mg/kg i.v., days 7 and 14) is “toxic dose”; in data set [4] (113 mg/kg i.v., days 7 and 14, listed as reference product), “toxic”. In addition, the T/C % in data set [4] (i.v. on days 7 and 14, 40 mg/kg) amounted to 126%; in data set [4] (setting [9]) it was 145%; in data set [4] (setting [10]), 156%; in data set [4] (setting [11]) it was 186%.

Regarding `Cc1c2ccnc(C(=O)NCCN(C)C)c2cc2c3cc(OC(=O)CCCC(=O)O)ccc3n(C)c12.Cl.Cl` [Example 3, 1-[(2-Dimethylaminoethyl)aminocarbonyl]-5,6-dimethyl-9-(4-carboxybutanoyloxy)-6H-pyrido-[4,3-b]carbazole dihydrochloride], the IC50 in data set [1] (setting [5]) was 43.2 nM; in data set [2] (setting [6]), 74.2 nM; in the data set with murine leukaemia P388 (setting [7]) it was 7.1 nM; in data set [3] (setting [8]), 923 nM. Also, the “increase in survival of the animals” value in data set [4] (administered twice at 160 mg/kg i.v.) was determined as 81%. Also, in data set [4] (even at a strong dose, i.v.), the tolerability entry is listed as “very well tolerated”. The therapeutic index entry in data set [4] (i.v.) was “excellent”. The anti-tumour activity entry in data set [4] (i.v. on days 7 and 14) is reported as “active”. For the same compound, the T/C % came out at 133% in data set [4] (setting [9]); 147% in data set [4] (setting [10]); 174% in data set [4] (setting [11]); 181% in data set [4] (i.v. on days 7 and 14, 160 mg/kg).

Take `COc1cccc2c1C(=O)c1c(O)c3c(c(O)c1C2=O)C[C@@](O)(C(=O)CO)C[C@@H]3O[C@H]1C[C@H](N)[C@H](O)[C@H](C)O1` [ADR, adriamycin, reference compound]: the IC50 in data set [1] came out at 19.3 nM; in data set [2] (KB 3-1, 96 h), 17.3 nM; in the data set with murine leukaemia P388 (P388, 48 h), 18.1 nM; in data set [3] (KB-A1, 96 h) it was 6690 nM.
